Literature values as cited in patent US8604163B2, “EEF2K assays for identifying compounds that inhibit EEF2K activity” (University of Medicine and Dentistry of New Jersey, priority 2009, dated 2013).

Test system: glioma cell lines
Details: by inhibiting eEF2-K; Parmer et al. 1997

CC(=O)c1c(O)c(C)c(O)c(Cc2c(O)c3c(c(C(=O)/C=C/c4ccccc4)c2O)OC(C)(C)C=C3)c1O [rottlerin]
growth of glioma cell lines: inhibit growth of glioma cell lines
